Reference: PubChem BioAssay (NCI)
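Growth conditions: 96-well plates. Treatment: test compound, 48 hours, 5 concentrations. Analysis: linear interpolation between bracketing concentrations; unreached endpoints set to highest concentration. Abbreviation: GI50, concentration required for 50% inhibition of growth. The concentration for full growth arrest is given as TGI.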

Columns and labels:
Experiment in all cases: NCI-60 cell line screen, 48 h
[1] = tested on: MCF7 breast
[2] = tested on: SNB-19 CNS
[3] = tested on: DU-145 prostate
[4] = tested on: SF-268 CNS
[5] = tested on: NCI-H522 lung
[6] = tested on: SK-MEL-2 melanoma
[7] = tested on: U251 CNS

Structure (SMILES) | GI50 [1] [µM] | TGI [1] [µM] | GI50 [2] [µM] | TGI [2] [µM] | GI50 [3] [µM] | TGI [3] [µM] | GI50 [4] [µM] | TGI [4] [µM] | GI50 [5] [µM] | TGI [5] [µM] | GI50 [6] [µM] | TGI [6] [µM] | GI50 [7] [µM] | TGI [7] [µM]
COc1cc(C)ccc1C(=O)c1ccc(C)cc1OC | 0.92 | > 100 | 7.31 | > 100 | 3.45 | 83.6 | 7.92 | > 100 | 1.76 | 4.96 | 2.45 | > 100 | 3.06 | > 100
N#CC(C#N)=C/C=C(\Cl)c1ccc(Cl)cc1 | 14 | > 100 | 18.5 | > 55.2 | 11.6 | 29.7 | 14.1 | 50.5 | 5.81 | > 49.6 | 17.7 | > 100 | 6.9 | > 43.7
CN(C)c1cc2ccccc2oc1=O | – | > 100 | – | > 100 | – | > 100 | – | > 100 | – | > 100 | – | > 100 | – | > 100
CCN1C(=O)N(CC)C2C1NN=c1s/c(=C\c3ccc(Cl)cc3Cl)c(=O)n12 (stereo not given) | 0.0322 | > 43.4 | 0.0503 | > 100 | 0.0332 | 1.38 | 0.0485 | > 67.5 | 0.0216 | 0.219 | 0.0592 | > 60 | 0.0365 | > 41.3
COc1ccc(-c2noc(C(=O)O)c2-c2cc(OC)c(OC)c(OC)c2)cc1 | 1.34 | > 100 | 6.75 | > 100 | 3.48 | > 100 | 7.63 | > 100 | 1.59 | > 100 | 5.9 | > 100 | 4.65 | > 100
C/C(CC(O)(C(F)(F)F)C(F)(F)F)=N\NC(N)=O | – | > 10 | – | > 10 | – | > 10 | – | > 10 | – | > 10 | – | > 10 | – | > 10
COc1cc(/C=C/C(=O)/C=C/c2cc(OC)c3c(c2)OCO3)cc2c1OCO2 | – | – | 10.3 | > 100 | 18.4 | > 100 | 5.47 | > 100 | 14.5 | > 100 | > 100 | > 100 | 2.19 | 6.45
O=S(=O)(Nc1ccc(Br)cc1)c1ccc(-c2cnc(C3CC3)o2)cc1 | 0.651 | 13.9 | 3.98 | 18.3 | 3.8 | 17.4 | 5.05 | 22.4 | 0.855 | 12.9 | 4.2 | 20.3 | 3.31 | 18.2
COC(=O)C1=C(O)C(C(=O)OC)C2CC(=O)CC1C2(C)C (stereo not given) | – | > 100 | – | > 100 | – | > 100 | – | > 100 | – | > 100 | – | > 100 | – | > 100
CC1=C([Se]CC(OC(=O)CC[Se]c2ccccc2)C(=O)NC(C)(C)C)C(=O)c2ccccc2C1=O (stereo not given) | 1.69 | 3.73 | 0.638 | 2.05 | 1.97 | 3.6 | 1.76 | 3.29 | 1.67 | 3.34 | 2 | 3.7 | 1.14 | 3.77
c1ccc(C2ONC3=NCCN32)cc1 (stereo not given) | 55.9 | > 100 | > 100 | > 100 | 62.1 | > 100 | 54.3 | > 100 | 44.5 | > 100 | > 100 | > 100 | 55 | > 100
C=C1CCC2C3(C)COC(C)(C)OC3CCC2(C)C1C/C=C1/C(=O)OCC1OC(C)=O (stereo not given) | 1.76 | 7.99 | 15.6 | 29 | 4.28 | 14 | 5.83 | 17.6 | 0.476 | 2 | 3.52 | 15.6 | 2.69 | 9.31
Cc1c2cnccc2c(C)c2c1c1cc(C#N)ccc1n2C | 0.262 | 1.12 | 0.181 | 1.94 | 0.208 | 0.836 | 0.209 | 1.59 | 0.167 | 0.817 | 0.256 | 0.771 | 0.204 | 1.12
CCSCCCSCCSCC | – | > 100 | – | > 100 | – | > 100 | – | > 100 | – | > 100 | – | – | – | > 100
CCCN1C(=O)NC(=O)C(CC)(N2C(=O)c3c(F)c(F)c(F)c(F)c3C2=O)C1=O (stereo not given) | 0.987 | 4.06 | 2.44 | 6.53 | 1.7 | 3.27 | 2 | 5.07 | 1.32 | 3.34 | 2.95 | 8.32 | 1.41 | 3.76
COc1cccc(-c2nc3cc(NC(=O)c4ccc(Cl)c(C#N)c4)ccc3o2)c1 | – | – | 3.18 | > 100 | 2.36 | > 100 | – | – | 1.68 | 4.54 | 9.21 | 74.2 | – | –
c1ccc(NN(Cc2cnccn2)c2ccccc2)cc1 | – | > 100 | – | > 100 | – | > 100 | – | > 100 | – | > 100 | – | > 100 | – | > 100
CNC(=S)Nc1ccc(OC)c2ccccc12 | – | > 10 | – | > 10 | – | > 10 | – | > 10 | – | > 10 | – | – | – | > 10
CCC1(O)C(=O)OCc2c1cc1n(c2=O)Cc2cc3ccccc3nc2-1 (stereo not given) | – | 2.06 | – | 0.0667 | – | – | – | 15.2 | – | 3.89 | – | 3.52 | – | 0.57
CCc1c2c(nc3ccc(OCc4ccc(B(O)O)cc4)cc13)-c1cc3c(c(=O)n1C2)COC(=O)[C@]3(O)CC | < 0.01 | – | < 0.01 | > 39.6 | < 0.0158 | 6.05 | – | – | < 0.0183 | – | 0.63 | – | < 0.01 | –
O=C1C=CC(=O)c2c1ccc1c3ccccc3n(Cc3ccc([N+](=O)[O-])cc3)c21 | – | > 100 | – | > 100 | – | > 100 | – | > 100 | – | 55.4 | – | – | – | > 100
